# Experimental data from US10328075B2, “Method of treatment and compounds for use therein” (Baker Heart and Diabetes Institute, priority 2015, dated 2019).
# “Also recorded” adds a separate entry of the source.
# Legend:
# Type in all cases: cell-based
# [1] = biological target: T1, hFPR1 (Homo sapiens, UniProt P21462); test: ERK1/2 phosphorylation (AlphaScreen SureFire) in hFPR1-FlpIn-CHO cells
# T1 construct: expressed in transfected cells
# T1 sequence (P21462 1-350): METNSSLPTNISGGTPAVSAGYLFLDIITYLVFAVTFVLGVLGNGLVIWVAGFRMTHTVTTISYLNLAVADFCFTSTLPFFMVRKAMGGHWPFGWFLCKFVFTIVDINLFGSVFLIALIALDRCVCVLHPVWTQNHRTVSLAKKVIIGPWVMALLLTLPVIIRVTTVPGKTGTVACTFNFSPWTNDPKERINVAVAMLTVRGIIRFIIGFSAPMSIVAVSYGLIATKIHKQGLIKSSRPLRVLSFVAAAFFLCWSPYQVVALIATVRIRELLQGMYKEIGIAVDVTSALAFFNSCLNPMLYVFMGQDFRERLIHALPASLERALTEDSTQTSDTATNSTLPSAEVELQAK
# Description: (§1) cDNDA construct and generation of stable cell lines: cDNA in pcDNA3.1^+ encoding the human formyl peptide receptors (FPR) subtypes, hFPR1, hFPR2 and hFPR3 was obtained from Invitrogen. The sequences for 3 hFPR receptors were amplified by PCR and cloned into the Gateway entry vector, pDONR202™, using the BP clonase enzyme mix, according to the manufactures' instructions (Invitrogen Inc, Carlsbad, Calif., USA). All hFPR receptors constructs in pDONR201™ were subsequently transfected into the pEF5/FRT/V5/dest vector using the LR clonase enzyme mix (Invitrogen). Receptor constructs (pEF5/FRT/V5/dest) were used to transfect FIp-In CHO cells as described previously (Valant C et al., PNAS, 2014). Cells were selected using 500 μg/mL hydromycin to generate cell lines stably expressing each receptor construct. Cells were maintained and cultured in high glucose DMEM supplemented with 10% FBS, 16 mM HEPES and 500 μg/mL hydromycin at 37° C. under a humidified atmosphere containing 5% CO2.
# (§2) In the various assays described below, cells were plated into 96-well transparent cell culture plates at 4×10^4 cells per well, cultured overnight in serum-free media at 37° C. in 5% CO2.
# (§3) Measurement of extracellular signal regulated kinase 1 and 2 phosphorylation (pERK1/2): Initial ERK1/2 phosphorylation at Thr202/Tyr204 time-course experiments were performed to determine the time at which ERK1/2 phosphorylation was maximal after stimulation by each agonist. Cells were seeded onto transparent 96-well cell culture plates at 4×10^4 cells per well. After 6 h, cells were washed once with PBS, and then incubated in serum-free DMEM overnight, to allow FBS-stimulated phosphorylated ERK1/2 levels to subside. […] 10% (v/v) FBS was used as a positive control, with vehicle controls also included. The reaction was terminated by removal of study drugs and lysis of cells with 100 μL of SureFire lysis buffer (TGR Biosciences). Cell were lysed in SureFire lysis buffer and transferred to 384-well opaque proxiplates. Under low-light conditions, a 1:120 (v:v) dilution of AlphaScreen beads (both acceptor and donor):Surefire reaction buffer was prepared, which was mixed with the activation buffer in a ratio of 6:1 (v:v), respectively. Plates were incubated in the dark at 37° C. for 1 h before the fluorescence signal was measured by a Fusion-α plate reader (PerkinElmer Life and Analytical Sciences, Foster city, CA, USA) with standard AlphaScreen settings. Data were normalized to the maximal response elicited by 10% (v/v) FBS at the same time point.
# (§4) Receptor mediated pERK1/2 levels were determined using the AlphaScreen™ ERK1/2 SureFire™ kit, as described previously (Keov, P et al., 2014). For all experiments, 10% FBS was used as internal positive control to stimulate pERK1/2, and which the maximum responses were used for normalization of data, whilst vehicle was used as negative control.
# (§5) Data analysis: All data were analysed using GraphPad Prism 6.0 (GraphPad Software, San Deigo, Calif., USA). Where appropriate, concentration-response curves were fitted to derive the maximal agonist effect (Emax), and the ligand potency estimate (pEC50), where Emax is the maximal possible response of the system (not the agonist), basal is the basal level of response in the absence of agonist, and pEC50 is the negative logarithm of the agonist concentration that gives a response halfway between Emax and basal.
# (§6) In the present study, FIp-IN CHO cells and Gateway plasmid were obtained from Invitrogen Inc (Carlsbad, Calif., USA). The sequences for all 3 known human FPRs (hFPR1, hFPR2 and hFPR3) were amplified by PCR and cloned into the Gateway entry vector, pDONR202TM, using the BP clonase enzyme mix, according to the manufacturers' instructions. The hFPR pDONR201TM constructs were subsequently transfected into the pEF5/FRT/V5/dest vector using the LR clonase enzyme mix (Invitrogen).
# [2] = biological target: T2, hFPR2 (Homo sapiens, UniProt P25090); test: ERK1/2 phosphorylation (AlphaScreen SureFire) in hFPR2-FlpIn-CHO cells
# T2 construct: expressed in transfected cells
# T2 sequence (P25090 1-351): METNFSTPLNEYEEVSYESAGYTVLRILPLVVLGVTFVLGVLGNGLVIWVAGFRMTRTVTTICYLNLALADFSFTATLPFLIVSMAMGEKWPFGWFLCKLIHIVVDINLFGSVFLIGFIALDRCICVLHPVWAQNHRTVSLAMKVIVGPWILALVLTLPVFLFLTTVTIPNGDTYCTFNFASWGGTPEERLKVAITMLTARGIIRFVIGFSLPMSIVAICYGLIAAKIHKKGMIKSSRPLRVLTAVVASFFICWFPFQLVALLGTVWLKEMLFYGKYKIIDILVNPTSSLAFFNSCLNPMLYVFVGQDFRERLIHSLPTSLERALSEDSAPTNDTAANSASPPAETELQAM
# Description: as §1, §2, §3, §4, §5, §6
# [3] = biological target: T3, hFPR3 (Homo sapiens, UniProt P25089); test: Agonist responses (ERK1/2 phosphorylation) in hFPR3-CHO cells
# T3 construct: expressed in transfected cells
# T3 sequence (P25089 1-353): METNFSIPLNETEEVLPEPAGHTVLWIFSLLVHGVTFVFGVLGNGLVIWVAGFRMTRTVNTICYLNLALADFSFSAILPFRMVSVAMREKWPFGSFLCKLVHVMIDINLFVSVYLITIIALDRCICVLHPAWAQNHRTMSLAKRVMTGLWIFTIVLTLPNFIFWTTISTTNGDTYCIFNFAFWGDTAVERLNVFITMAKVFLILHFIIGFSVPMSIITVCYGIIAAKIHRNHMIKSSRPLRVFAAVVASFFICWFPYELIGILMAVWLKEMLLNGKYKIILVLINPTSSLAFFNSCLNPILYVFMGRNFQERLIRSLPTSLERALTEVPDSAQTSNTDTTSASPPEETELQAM
# Description: as §1, with “Cells were maintained and cultured in high glucose DMEM supplemented with 10% FBS, 16 mM HEPES and 500 μg/mL hydromycin at 37° C. under a humidified atmosphere containing 5% CO2.” left out
# Measurement of extracellular signal regulated kinase 1 and 2 phosphorylation (pERK1/2): Initial ERK1/2 phosphorylation at Thr202/Tyr204 time-course experiments were performed to determine the time at which ERK1/2 phosphorylation was maximal after stimulation by each agonist. […] Plates were incubated in the dark at 37° C. for 1 h before the fluorescence signal was measured by a Fusion-α plate reader (PerkinElmer Life and Analytical Sciences, Foster city, CA, USA) with standard AlphaScreen settings. […]
smiles,measurement,setting,value
"CCCCC[C@H](O)/C=C/C=C\C=C\C=C\[C@@H](O)[C@@H](O)CCCC(=O)O [LxA4, lipoxin-A4]",ERK-phosphorylation at hFPR1 (in words),[1],failed to stimulate; also recorded: without effect
same,ERK-phosphorylation at hFPR2 (in words),[2],failed to stimulate; also recorded: without effect
same,Agonist response (ERK-phosphorylation) in hFPR3-CHO cells,[3],failed to stimulate; also recorded: without effect
